Activity calls are given as the source filed them. For most assays here, no stated cut-off is given here; in the data, actives have a measured EC50 and inactives only a lower limit.
Columns and labels:
[1] = target: T1, Calpain-2 catalytic subunit (Sus scrofa, UniProt P43367); assay: m-calpain protease blockers, concentration series – biochemical, fluorogenic peptide substrate, dose response (AID 1420); type: functional
T1 sequence (P43367 whole entry): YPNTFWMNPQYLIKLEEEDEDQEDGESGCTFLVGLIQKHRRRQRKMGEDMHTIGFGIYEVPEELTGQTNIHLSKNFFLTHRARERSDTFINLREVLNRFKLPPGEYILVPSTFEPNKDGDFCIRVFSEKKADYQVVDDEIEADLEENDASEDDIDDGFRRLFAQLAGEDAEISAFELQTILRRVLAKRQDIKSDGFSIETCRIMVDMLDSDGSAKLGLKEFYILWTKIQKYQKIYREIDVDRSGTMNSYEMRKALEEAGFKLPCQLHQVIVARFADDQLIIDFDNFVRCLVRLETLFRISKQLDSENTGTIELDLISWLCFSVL

[2] = target: T2, Short transient receptor potential channel 4 (Mus musculus, UniProt Q9QUQ5); assay: block of DAMGO-driven TRPC4 calcium entry – cell-based, HEK293 TRPC4/mu-opioid, Fluo-4 calcium, dose response (AID 434942); type: functional;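 further: potency of inhibitors blocking the TRPC4 calcium response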
T2 sequence (Q9QUQ5 whole entry): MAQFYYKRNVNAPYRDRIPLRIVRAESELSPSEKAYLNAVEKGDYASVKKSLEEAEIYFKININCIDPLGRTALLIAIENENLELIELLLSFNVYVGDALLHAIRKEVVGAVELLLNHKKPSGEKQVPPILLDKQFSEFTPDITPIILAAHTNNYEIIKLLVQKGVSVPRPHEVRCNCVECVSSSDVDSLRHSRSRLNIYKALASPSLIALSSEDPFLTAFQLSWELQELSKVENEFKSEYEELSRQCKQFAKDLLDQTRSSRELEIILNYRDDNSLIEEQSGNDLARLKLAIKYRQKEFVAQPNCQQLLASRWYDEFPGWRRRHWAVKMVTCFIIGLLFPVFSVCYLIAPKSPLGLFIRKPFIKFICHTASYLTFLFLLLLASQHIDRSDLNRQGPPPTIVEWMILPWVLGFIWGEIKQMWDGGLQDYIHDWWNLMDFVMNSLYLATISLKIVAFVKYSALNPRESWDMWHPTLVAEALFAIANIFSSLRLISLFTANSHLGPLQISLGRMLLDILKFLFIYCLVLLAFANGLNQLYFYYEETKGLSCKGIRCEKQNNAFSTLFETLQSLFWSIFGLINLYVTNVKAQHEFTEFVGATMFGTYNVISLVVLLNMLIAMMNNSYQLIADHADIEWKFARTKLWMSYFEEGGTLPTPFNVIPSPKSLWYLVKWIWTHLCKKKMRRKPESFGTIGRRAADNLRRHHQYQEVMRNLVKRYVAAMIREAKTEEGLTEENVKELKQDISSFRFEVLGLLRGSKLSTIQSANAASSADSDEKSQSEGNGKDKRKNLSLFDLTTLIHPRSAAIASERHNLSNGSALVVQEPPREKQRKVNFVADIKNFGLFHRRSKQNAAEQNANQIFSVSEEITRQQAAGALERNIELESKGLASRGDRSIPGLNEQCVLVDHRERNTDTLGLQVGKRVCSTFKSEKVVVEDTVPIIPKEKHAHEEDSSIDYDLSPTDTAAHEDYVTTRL

[3] = target: T3, Carboxy-terminal domain RNA polymerase II polypeptide A small phosphatase 1 (Homo sapiens, UniProt Q9GZU7); assay: CTDSP1 inhibitors, concentration-response, biochemical, absorbance readout, ultra-high-throughput screen actives (AID 540297); type: functional
T3 sequence (Q9GZU7 whole entry): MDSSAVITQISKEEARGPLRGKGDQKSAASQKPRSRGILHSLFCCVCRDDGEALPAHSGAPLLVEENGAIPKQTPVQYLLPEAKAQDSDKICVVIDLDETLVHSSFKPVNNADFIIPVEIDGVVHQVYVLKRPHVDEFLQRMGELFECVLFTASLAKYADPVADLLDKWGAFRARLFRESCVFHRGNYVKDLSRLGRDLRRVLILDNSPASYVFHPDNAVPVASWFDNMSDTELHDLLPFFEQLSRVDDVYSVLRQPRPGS

cells [4] = type: functional
cells [5] = type: functional, cell-based
cells [6] = type: functional, cell-based; remark: listed apart in the source
[7] = blockers of HIV-1 ZM109 envelope-driven cell-cell fusion – HeLa effector, CEM target cells, luciferase, cherry-pick, dose response (AID 652058); type: functional, cell-based;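 further: luciferase signal from HIV-1 Env mediated cell-cell fusion of effector and target cells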
[8] = NIH-3T3 fibroblast cytotoxicity, dose response, cytotoxicity control, cell-based, fluorescence, Alamar Blue, secondary assay (AID 2327); type: functional;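 further: NIH-3T3 mouse fibroblasts cultured with fluconazole at 8 µg/mL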
[9] = luciferase reporter signal suppression in cells – H4 neuroglioma cells, luminescence, dose response (AID 1990); type: functional, cell-based
[10] = system: Streptococcus sp. 'group A'; assay: Streptococcus pyogenes SK(-)GAS viability under kanamycin – luminescence, BacTiterGlo, confirmation, counter-screen for streptokinase expression inhibitor project, dose response (AID 1900); type: functional, organism-based
[11] = Luminescence Cell-Based Dose Response HTS to Identify Inhibitors of 5'UTR Stem-Loop Driven Prion Protein mRNA Translation in H4 Neuroglioblastoma Cells. [Related pubchem assays: 1827 (Project Summary), 1813 (Primary HTS)]; type: functional
[12] = alpha-synuclein stem-loop luciferase translation blockers – H4 neuroglioma cells, luminescence, confirmation (AID 1988); type: functional, cell-based
[13] = fluconazole-exposed Candida albicans growth modulators – fluorescence, retest, confirmation (AID 2467); type: functional, cell-based
[14] = Trypanosoma cruzi growth suppression in host cells – NIH3T3 host cells, beta-gal luminescence, confirmation (AID 2044); type: functional, cell-based;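 further: intracellular parasites grown in NIH/3T3 mouse fibroblasts as host cells; luminescent beta-galactosidase reporter signal from transgenic T. cruzi replicating inside host cells; inhibitors lower the luminescence signal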
[15] = NIH3T3 cell viability loss – ATP luminescence, mouse fibroblasts, counter-screen, dose response (AID 2010); type: functional, cell-based;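 further: cells exposed to compound for about 90 hours before reading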
Streptococcus = assay: GAS UMAA2166 growth inhibition – luminescence, BacTiterGlo, counter-screen for streptokinase expression inhibitor project, dose response (AID 1915); type: functional, organism-based;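 further: potency for reduction of bacterial viability or growth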
[16] = Luminescence Cell-Based Dose Retest to Confirm Inhibitors of Cancer Stem Cells. [Related pubchem assays (depositor defined):AID2717, AID2721]; type: functional; settings: Homo sapiens
Streptokinase A = target: T4, Streptokinase A (Streptococcus pyogenes serotype M1, UniProt P10520); assay: viability-normalized secreted streptokinase activity reduction – plasminogen activation absorbance, OD405, dose response (AID 1914); type: functional, Streptococcus pyogenes M1 GAS;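 further: secreted streptokinase activity via plasminogen activation per viability signal from cell pellet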
T4 sequence (P10520 whole entry): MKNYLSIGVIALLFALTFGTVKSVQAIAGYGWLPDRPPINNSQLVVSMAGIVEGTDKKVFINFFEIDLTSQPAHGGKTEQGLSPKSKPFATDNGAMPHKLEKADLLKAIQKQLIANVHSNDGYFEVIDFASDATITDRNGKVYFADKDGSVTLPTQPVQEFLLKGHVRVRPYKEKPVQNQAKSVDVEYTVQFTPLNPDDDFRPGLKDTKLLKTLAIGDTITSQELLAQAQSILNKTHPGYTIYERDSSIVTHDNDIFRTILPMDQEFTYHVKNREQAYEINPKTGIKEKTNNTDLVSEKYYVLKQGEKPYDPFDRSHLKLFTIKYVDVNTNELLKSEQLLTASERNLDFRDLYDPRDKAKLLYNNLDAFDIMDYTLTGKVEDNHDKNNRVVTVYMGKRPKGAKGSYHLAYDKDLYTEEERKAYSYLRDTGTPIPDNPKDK

[17] = microbe, parasite or virus in culture; type: functional; settings: Mycobacterium tuberculosis
[18] = viability of PTEN-deleted HCT116 cells – cell-based, HCT116 PTEN knockout, dose response (AID 1047); type: functional;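 further: HCT116 colon tumor cells with PTEN knocked out; cells exposed to compound for 60 hours before readout; potency for loss of cell viability measured by luminescence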
[19] = viability of HCT116 lacking mutant beta-catenin – cell-based, human colon tumor, dose response (AID 1045); type: functional;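 further: HCT116 colon tumor cells with beta catenin knocked out; cells exposed to compound for 60 hours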

In the case of `O=C(CN1CCCCCCC1)Nc1ccc(Cl)cc1Cl`, the IC50 [1] is reported as 4.92 µM (not active).

In the case of `Cc1cc(OCc2cc(C(=O)NCC3(C)COC3)no2)cc(C)c1Cl`, the EC50 [2] is reported as 2.37 µM (active).

In the case of `Cc1ccc2c(c1)N(C(=O)CCC(=O)Nc1ccccc1Br)CC(C)O2` (centres undefined), the EC50 [2] is reported as 1.68 µM (active).

For `COc1ccc(C(=O)OCC(=O)NCc2ccco2)cc1OC`, the IC50 [3] was 9.73 µM (active).

With `Cc1cc(Br)c(NC(=O)CN(C)CCOc2ccccc2)c(Br)c1` the EC50 [2] was 5.96 µM (active).

In the case of `C=CCOc1ccc(Br)cc1CNC(C)(C)CO`, the EC50 [2] is reported as 3.76 µM (active).

For `CN1/C(=C\C(=O)COC(=O)C2COc3ccccc3O2)C(C)(C)c2ccccc21` (centres undefined), the IC50 (cells [4]) was 48.2 µM (active).

For `COc1ccc(-n2c(C)csc2=S)cc1`, the EC50 (cells [5]) was > 350 µM (not active) and the EC50 (cells [6]) was > 350 µM (not active).

With `CCOc1cc(CNCc2cccs2)ccc1OCC(=O)NC(C)(C)C` the EC50 [2] was 2.11 µM (active).

For `Cc1cccc(NC(=O)C2CC(=O)N=C(Nc3nc4ccccc4s3)N2)c1` (centres undefined), the EC50 (cells [5]) was > 350 µM (not active) and the EC50 (cells [6]) was > 350 µM (not active).

With `CCc1ccc(NC(=O)C(=O)NNC(=O)COc2cccc(OC)c2)cc1` the IC50 (cells [4]) was 5.58 µM (active).

With `O=C(C[C@H]1C[C@@H]2c3cc(NC(=O)Nc4ccc(F)cc4)ccc3O[C@@H]2[C@@H](CO)O1)NCC1CC1` the AC50 [7] was 41.4 µM (active).

In the case of `Cc1[nH]n(S(=O)(=O)Cc2ccccc2)c(=O)c1N=Nc1ccccc1Cl`, the IC50 (cells [4]) is reported as 8.42 µM (active).

For `Cc1cc(SCC(=O)N/N=C/c2ccc(O)cc2O)c(C)cc1Br`, the EC50 [8] was > 160 µM (inactive), the EC50 [9] was 5.85 µM (active) and the EC50 [10] was 2.46 µM (active). The EC50 (cells [5]) was 13.4 µM (active), the EC50 [11] was 9.19 µM (active) and the EC50 [12] was 5.74 µM (active). The EC50 [13] was 3.06 µM (active), the EC50 [14] was 0.687 µM (active) and the EC50 (cells [6]) was > 350 µM (not active). The EC50 [15] was > 60 µM (inconclusive), the EC50 (Streptococcus) was 2.57 µM (active) and the AC50 [16] was 4.49 µM (active).

With `COc1cccc(C2C3=C(N=c4s/c(=C\c5cccc(O)c5)c(=O)n42)c2ccccc2CC3)c1OC` (centres undefined) the EC50 [10] was 20.8 µM (active), the EC50 (Streptokinase A) was 6.31 µM (active) and the CC50 [17] was 32.5 µM (active). The EC50 [18] was 13.9 µM (active), the EC50 [19] was 15.3 µM (active) and the EC50 (Streptococcus) was > 150 µM (not active). The AC50 [16] was 4.06 µM (active).

— ChEMBL document CHEMBL1201862, “PubChem BioAssay data set” (2004)
